Measurements reported in patent publication US20040121965A1, “Method of treating resistant tumors” (Wyeth Holdings Corporation, priority 2002, published 2004).
Read-outs that look alike come from different tables or passages of the source. Square brackets hold non-standard residues; d marks the D form. Peptide text beside a SMILES is read from it. * marks the point of attachment. X1 = COC1=CC(=O)N(C(=O)[C@@H](O*)C(C)C)[C@H]1Cc1ccccc1; NMe2Val = CC(C)[C@@H](C(=O)*)N(C)C; NMeV = CN[C@H](C(=O)O)C(C)C

Key:
KB-3-1 = assay: Cell survival assay (SRB), KB-3-1; format: cell-based, human
How it was run: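 SRB protein stain as survival read-out; IC50 = conc. giving 50% growth inhibition. Compound serially diluted, duplicate wells, 3 d exposure; TCA fixation (10% final, 1 h, 4 °C), 0.04% SRB/1% acetic acid 10 min, solubilised in 10 mM Trizma Base, A read.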

[1] = system: Human Melanoma Carcinoma Lox; details: staged LOX xenograft; at MTD ('<': MTD not achieved); days 11-15
Method: 2.4. Growth of Tumors in Nude Mice. […] In these experiments, xenografts are implanted subcutaneously into the flanks of nude mice. […] Relative tumor mass compared to controls are assessed during the 21-day post-staging period.
Groups of 5 female nu/nu mice are injected with 1.5×10^6 KB-3-1 (A) or Lox cells (B). […] Relative tumor growth is determined during the experiment and % T/C calculated. Statistical analyses are Student's t-test of treated time points vs. vehicle (*, P<0.05; **, P<0.01)

KB-8-5 (MDR1+) = assay: Cell survival assay (SRB), KB-8-5 (MDR1+); details: for IC50: Homo sapiens
KB-V1 (MDR1++) = assay: Cell survival assay (SRB), KB-V1 (MDR1++); details: for IC50: Homo sapiens
KB-HTI-4.0 = assay: Cell survival assay, KB-3-1 line made resistant to Example 129 (KB-HTI-4.0); format: cell-based, human
Source text: Cells lines with previously known mechanisms of resistance. […] Res. 8: 207-218,1996); KB-3-1 (parental derived from an epidermoid carcinoma), KB-8.5, KB-V1 (Akiyama S-I, Fojo A, Hanover J A, Pastan I, Gottesman M M. Isolation and genetic characterization of human KB cell lines resistant to multiple drugs. Somatic Cell Mol. Gen., 11: 117-126,1985; Shen D-W, Cardarelli C, Hwang J, Cornwell M, Richert N, Ishii S, Pastan I, Gottesman MM. […] J. Biol. Chem., 261: 7762-7770, 1986); and HL-60 (parental derived from human leukemia) and HL60/AR (McGrath T., Center M. S. Adriamycin resistance in HL60 cells in the absence of detectable P-glycoprotein. Biochem. Res. Commun., 145:1171-1176,1987); A549 and A549.EpoB40 (He L., Yang C.-P.H., Horwitz S. B. Mutations in p-tubulin map to domains involved in regulation of microtubule stability in epothilone-resistant cell lines. Molecular Cancer Therapeutics. 1: 3-10, 2001). HCT-15 human colon carcinoma and DLD-1 human colon carcinoma are obtained from American Tissue Culture Collection. The MX-1W carcinoma is a Wyeth variant orginally obtained as MX-1 breast carcinoma from the National Cancer Institute. Cell lines selected for resistance to Representative Example 129. KB-3-1 cells are selected for resistance to Example 129 by chronically exposing cells to increasing concentrations of Example 129.
2.2. Cell Survival Assay: Standard Pharmacological Test Procedure. The concentration of candidate inhibitor required to inhibit 50% of cell growth (IC50) is done according to previously reported methods. […] Compounds are serially diluted into media as 2× stocks and 100 μl added to cells in duplicate. Compounds are incubated with cells for 3 days. At the end of the incubation period the sulforhodamine B (SRB) assay, which measures protein content as an assessment of cell survival, is performed as described previously (Skehan P, Storeng R, Scudiero D, Monks A, McMahon J, Vistica D, Warren J T, Bokesch H, Kenney S, Boyd MR. New calorimetric cytotoxicity assay for anticancer-drug screening. J Natl Cancer Inst 1990 Jul 4;82(13):1107-12) with some modification as follows. For KB-3-1 cells with 20% FCS, media is gently decanted and replaced with 200 μl of serum-free media mixed with cold 50% TCA for a final concentration of 10% TCA. The plates are incubated for 1 hr at 4° C., followed by washing 5 times in cold distilled water, then air dried overnight. The fixed cells are stained for 10 min with 80 μl of 0.04% SRB solution prepared in 1% glacial acetic acid. Stain is discarded and plates washed 5 times in 1% glacial acetic acid, then air-dried until completely dry. Stained cell product is dissolved in 150 μl of 10 mM Trizma Base and placed on a shaker for 20 minutes until fully dissolved. Absorbance is read on a Victor V multi-label plate reader (Perkin Elmer, Gaithersburg, Md.).
Cells are selected for resistance to Example 129 to understand the frequency and mechanistic basis of resistance.

[2] = Homo sapiens, KB 3-1, 72 h, amount of drug needed to kill 50% of cells after three days continuous exposure, Table 11, read-out: IC50 in parental cell line KB-3-1
[3] = Homo sapiens, KB 3-1, KB-3-1 cells (paclitaxel-sensitive parent), read-out: In vitro IC50 (nM) KB-3-1
[4] = MDR1, read-out: In vitro IC50 (nM) KB85
[5] = read-out: In vitro IC50 (nM) KBV1
[6] = KB-3-1 parental, Table 8, read-out: KB-3-1 IC50
[7] = KB-3-1 line made resistant to Example 129, Table 8, read-out: KB-HTI-4.0 IC50
[8] = Homo sapiens, KB-3-1 parental, Table 8, read-out: KB-3-1 IC50
[9] = Homo sapiens, KB-3-1 line made resistant to Example 129, Table 8, read-out: KB-HTI-4.0 IC50
[10] = MDR1, read-out: KB-8-5 (MDR1+) IC50, nM (N)
[11] = read-out: KB-V1 (MDR1++) IC50, nM (N)

CN[C@H](C(=O)N[C@H](C(=O)N(C)[C@H](/C=C(\C)C(=O)O)C(C)C)C(C)C)C(C)(C)c1ccccc1.O=C(O)C(F)(F)F [Example 105, N,β,β-trimethyl-L-phenylalanyl-N^1-[(1S,2E)-3-carboxy-1-isopropyl-2-butenyl]-N^1-methyl-L-valinamide Trifluoroacetic Acid]
IC50 (KB-3-1; [2]): 5.2 nM
IC50 (KB-3-1; [3]): 5.25 nM
Activity in nude mice animal model (% T/C @ MTD on days 11-15) LOX [1]: 8%
Ratio KB85/KB (KB-8-5 (MDR1+)): 2.1
IC50 (KB-8-5 (MDR1+); [4]): 11.1 nM
Ratio KBV1/KB (KB-V1 (MDR1++)): 54.9
IC50 (KB-V1 (MDR1++); [5]): 288 nM

CO[C@]12C=C[C@](C)(O1)[C@@H](OC(=O)/C=C/c1cn(C)cn1)C[C@H]1C(C)=CC[C@H](C(C)C)[C@H]1/C=C\2CO[C@@H]1OC[C@@H](O)[C@@H](O)[C@@H]1OC(C)=O [Eleutherobin]
IC50 (KB-3-1; Homo sapiens, KB 3-1, read-out: KB-3-1 IC50, nM): 17.4 ± 1.63 nM
(RR) relative resistance vs. parental cells (KB-HTI-4.0): (1)
IC50 (KB-HTI-4.0; Homo sapiens, KB 3-1, read-out: KB-HTI-4.0 IC50, nM): 21.3 ± 4.4 nM

C=C(C)[C@@H]1NC(=O)[C@@H](NC)[C@@H](O)c2cc(Cl)c(O)c(c2)O[C@](C)(CC)[C@@H](C(=O)N2CC=C[C@H]2C(=O)N/C(C(=O)N/C(=C/C(=O)O)C(=O)O)=C(\C)CC)NC1=O [Phomopsin A]
IC50 (KB-3-1; [6]): 671 ± 55 nM
IC50 (KB-HTI-4.0; [7]): 3530 ± 2990 nM
(RR) relative resistance vs. parental cells (KB-HTI-4.0; KB-HTI-4.0 vs KB-3-1): (5)

C(=N\NC1=NCCN1)/c1c2ccccc2c(/C=N/NC2=NCCN2)c2ccccc12 [Bisantrene]
IC50 (KB-3-1; [8]): 119 ± 47 nM
IC50 (KB-HTI-4.0; [9]): 299 ± 91 nM
(RR) relative resistance vs. parental cells (KB-HTI-4.0; KB-HTI-4.0 vs KB-3-1): (3)

CC[C@@]1(O)C(=O)OCc2c1cc1n(c2=O)Cc2cc3c(CN(C)C)c(O)ccc3nc2-1 [Topotecan, topotecan]
IC50 (KB-3-1; [8]): 18.1 ± 2.98 nM
IC50 (KB-HTI-4.0; [9]): 1030 ± 541 nM
(RR) relative resistance vs. parental cells (KB-HTI-4.0; KB-HTI-4.0 vs KB-3-1): (57)

COc1cc2cc(c1Cl)N(C)C(=O)C[C@H](OC(=O)[C@H](C)N(C)C(C)=O)[C@]1(C)O[C@H]1[C@H](C)[C@@H]1C[C@@](O)(NC(=O)O1)[C@H](OC)/C=C/C=C(\C)C2 [Maytansine]
IC50 (KB-3-1; [8]): 0.06 nM
IC50 (KB-HTI-4.0; [9]): 0.84 ± 0.19 nM
(RR) relative resistance vs. parental cells (KB-HTI-4.0; KB-HTI-4.0 vs KB-3-1): (14)

CC[C@@]1(O)C(=O)OCc2c1cc1n(c2=O)Cc2cc3ccccc3nc2-1 [Camptothecin, camptothecin]
IC50 (KB-3-1; [8]): 14.9 ± 6.11 nM
IC50 (KB-HTI-4.0; [9]): 335 ± 157 nM
(RR) relative resistance vs. parental cells (KB-HTI-4.0; KB-HTI-4.0 vs KB-3-1): (23)

dolastatin
resistance of KB-3-1-derived cell lines selected with Example 129 (KB-HTI-4.0; vs KB-3-1): 28 fold

C=CC(C)(C)[C@H](NC(=O)[C@@H](NC)C(C)(C)c1ccccc1)C(=O)N(C)[C@H](/C=C(\C)C(=O)O)C(C)C [Example 120, (2E,4S)4-[{(2S)-3,3-dimethyl-2-[(N,β,β-trimethyl-L-phenylalanyl)amino]4-pentenoyl}(methyl)amino]-2,5-dimethyl-2-hexenoic Acid]
IC50 (KB-3-1; [2]): 3.5 nM
Activity in nude mice animal model (% T/C @ MTD on days 11-15) LOX [1]: 20%

CCC1=C[C@@H]2CN(C1)Cc1c([nH]c3ccccc13)[C@@](C(=O)OC)(c1cc3c(cc1OC)N(C)[C@H]1[C@@](O)(C(=O)OC)[C@H](OC(C)=O)[C@]4(CC)C=CCN5CC[C@]31[C@@H]54)C2 [vinorelbine, reference compound]
IC50 (KB-3-1; Homo sapiens, KB-3-1 parental, Table 3, read-out: KB-3-1 IC50, nM (N)): 3.5 nM
IC50 (KB-3-1; [8]): 1.22 ± 0.33 nM
IC50 (KB-HTI-4.0; [9]): 8.64 ± 2.94 nM
(RR) relative resistance vs. parental cells (KB-HTI-4.0; KB-HTI-4.0 vs KB-3-1): (7)
IC50 (KB-8-5 (MDR1+); [10]): 132 nM
RR, relative resistance (KB-8-5 (MDR1+); IC50 KB-8-5 / IC50 KB-3-1, Table 3): 38
resistance of KB-8-5 cells (KB-8-5 (MDR1+); KB-8-5 (KB-85) vs KB-3-1, in vitro): 38 fold
IC50 (KB-V1 (MDR1++); [11]): > 3000 nM
RR, relative resistance (KB-V1 (MDR1++); IC50 KB-V1 / IC50 KB-3-1, Table 3): >857

COC1=CC(=O)N(C(=O)[C@@H](OC(=O)[C@@H]2CCCN2C(=O)[C@@H]2CCCN2C(=O)[C@H](C(C)C)N(C)C(=O)[C@@H](NC(=O)[C@H](C(C)C)N(C)C)C(C)C)C(C)C)[C@H]1Cc1ccccc1 [Dolastatin −15] (NMe2Val-V[NMeV]PP-X1)
IC50 (KB-3-1; [6]): 0.04 ± 0.05 nM
IC50 (KB-HTI-4.0; [7]): 0.49 ± 0.14 nM
(RR) relative resistance vs. parental cells (KB-HTI-4.0; KB-HTI-4.0 vs KB-3-1): (12)

CN[C@H](C(=O)N[C@H](C(=O)N(C)[C@H](/C=C(\C)C(=O)O)C(C)C)C(C)(C)C)C(C)(C)c1ccc(OC(C)C)cc1 [Example 68, O-isopropyl-N,β,β-trimethyl-L-tyrosyl-N^1-[(1S,2E)-3-carboxy-1-isopropylbut-2-enyl]-N^1,3-dimethyl-L-valinamide]
IC50 (KB-3-1; [3]): 1.5 nM
Ratio KB85/KB (KB-8-5 (MDR1+)): 2.9
IC50 (KB-8-5 (MDR1+); [4]): 4.3 nM
Ratio KBV1/KB (KB-V1 (MDR1++)): 47.2
IC50 (KB-V1 (MDR1++); [5]): 70.8 nM

CN[C@H](C(=O)N[C@H](C(=O)N(C)[C@H](/C=C(\C)C(=O)O)C(C)C)C(C)(C)C)C(C)(C)c1cn(C)c2ccccc12 [Hemiasterlin, hemiasterlin, reference compound]
IC50 (KB-3-1; Homo sapiens, KB 3-1, KB-3-1 parental, Table 3, read-out: KB-3-1 IC50, nM (N)): 0.319 ± 0.095 nM
RR, relative resistance (KB-8-5 (MDR1+)): 3.2
IC50 (KB-8-5 (MDR1+); [10]): 1 nM
RR, relative resistance (KB-V1 (MDR1++)): 239
IC50 (KB-V1 (MDR1++); [11]): 76.1 nM

CO[C@@H](/C(C)=C/C=C/C(C)=C/c1coc(C)n1)[C@@H](C)[C@@H]1C[C@H](O)[C@@]2(C)O[C@@H]2/C=C/[C@@H](C)[C@H]2C[C@H](CC(=O)O2)C[C@@H]2O[C@H]2C(=O)O1 [Rhizoxin]
IC50 (KB-3-1; Homo sapiens, KB 3-1, KB-3-1 parental, Table 8, read-out: KB-3-1 IC50): 9.13 ± 2.17 nM
IC50 (KB-HTI-4.0; [9]): 98.4 ± 37.6 nM
(RR) relative resistance vs. parental cells (KB-HTI-4.0; KB-HTI-4.0 vs KB-3-1): (11)

CN[C@H](C(=O)N[C@H](C(=O)N(C)[C@H](/C=C(\C)C(=O)O)C(C)C)C(C)(C)SC)C(C)(C)c1ccc(OC)cc1 [Example 84, N,O,β,β-tetramethyl-L-tyrosyl-N^1-[(1S,2E)-3-carboxy-1-isopropyl-2-butenyl]-N^1-methyl-3-(methylsulfanyl)-L-valinamide]
IC50 (KB-3-1; [3]): 1.6 nM
Ratio KB85/KB (KB-8-5 (MDR1+)): 3.2
IC50 (KB-8-5 (MDR1+); [4]): 5.1 nM
Ratio KBV1/KB (KB-V1 (MDR1++)): 188.7
IC50 (KB-V1 (MDR1++); [5]): 302 nM
